{"source": "DBAASP", "experiment_in_all_cases": "≥ marks a high value that may be exact or a test limit, other limits are often not marked, values filed in µg/mL are converted to µM", "key": {"[1]": {"test_system": "Enterococcus faecalis ATCC 29212"}, "Candida albicans": {"test_system": "Candida albicans"}, "[2]": {"test_system": "Pseudomonas aeruginosa wt"}, "[3]": {"test_system": "Acinetobacter calcoaceticus"}, "Streptococcus agalactiae": {"test_system": "Streptococcus agalactiae"}, "[4]": {"test_system": "Escherichia coli ATCC 25922"}, "[5]": {"test_system": "Pseudomonas aeruginosa ATCC 27853"}, "Staphylococcus aureus": {"test_system": "Staphylococcus aureus"}, "[6]": {"test_system": "Staphylococcus aureus ATCC 25923"}, "Pseudomonas aeruginosa": {"test_system": "Pseudomonas aeruginosa"}, "[7]": {"test_system": "Pseudomonas aeruginosa K799"}, "[8]": {"test_system": "Salmonella enterica subsp. enterica serovar Typhimurium ATCC 14028s"}, "[9]": {"test_system": "Pseudomonas aeruginosa H374"}, "Escherichia coli UB1005": {"test_system": "Escherichia coli UB1005"}, "[10]": {"test_system": "Pseudomonas aeruginosa H547"}, "[11]": {"test_system": "Pseudomonas aeruginosa Z61"}, "[12]": {"test_system": "Pseudomonas aeruginosa H744"}, "[13]": {"test_system": "Staphylococcus aureus ATCC BAA-1556"}, "[14]": {"test_system": "Pseudomonas aeruginosa PAO1"}, "[15]": {"test_system": "Corynebacterium pseudotuberculosis ATCC 19410"}, "Bibersteinia trehalosi": {"test_system": "Bibersteinia trehalosi"}, "Aspergillus fumigatus": {"test_system": "Aspergillus fumigatus"}, "[16]": {"test_system": "Mannheimia haemolytica Serovar 1"}, "Pasteurella multocida": {"test_system": "Pasteurella multocida"}, "[17]": {"test_system": "Mannheimia haemolytica Serovar 2"}, "Klebsiella pneumoniae": {"test_system": "Klebsiella pneumoniae"}, "[18]": {"test_system": "Salmonella enterica subsp. arizonae"}, "[19]": {"test_system": "Mannheimia haemolytica Serovar 6"}, "[20]": {"test_system": "Pseudomonas aeruginosa M1251"}, "[21]": {"test_system": "Pseudomonas aeruginosa R70"}, "[22]": {"test_system": "Achromobacter xylosoxidans"}, "[23]": {"test_system": "Salmonella enterica serovar Typhimurium"}, "[24]": {"test_system": "Pseudomonas aeruginosa M917"}, "Pseudomonas fluorescens": {"test_system": "Pseudomonas fluorescens"}, "[25]": {"test_system": "Pseudomonas aeruginosa M76"}, "Ralstonia pickettii": {"test_system": "Ralstonia pickettii"}, "[26]": {"test_system": "Pseudomonas aeruginosa M1426"}, "[27]": {"test_system": "Stenotrophomonas maltophilia"}, "[28]": {"test_system": "Staphylococcus aureus FDA 209P"}, "[29]": {"test_system": "Bacillus subtilis ATCC 6633"}}, "note": "Several values for one entry are separate records, joined by “and”; a condition that tells them apart may be missing. Equal entries are not always repeated."}
{"smiles": "CC[C@H](C)[C@H](NC(=O)[C@H](C)NC(=O)[C@H](CO)NC(=O)[C@@H](NC(=O)[C@H](C)NC(=O)[C@H](CC(N)=O)NC(=O)[C@@H](NC(=O)[C@H](C)NC(=O)[C@H](Cc1cnc[nH]1)NC(=O)[C@@H]1CCCN1C(=O)[C@@H](NC(=O)[C@H](CC(C)C)NC(=O)[C@H](CO)NC(=O)[C@H](CC(C)C)NC(=O)[C@@H](N)Cc1ccccc1)[C@@H](C)CC)[C@@H](C)CC)C(C)C)C(=O)N[C@@H](C)C(=O)N[C@@H](CCCCN)C(=O)N[C@@H](Cc1cnc[nH]1)C(=O)N[C@@H](CC(N)=O)C(N)=O", "note": "[FLSLIPHAINAVSAIAKHN]", "values": [{"measurement": "MIC", "setting": "[1]", "value": 4, "unit": "µM"}, {"measurement": "MIC", "setting": "Candida albicans", "value": 7.9, "unit": "µM"}, {"measurement": "MIC", "setting": "[2]", "value": 3, "unit": "µM"}, {"measurement": "MIC", "setting": "[3]", "value": 7.9, "unit": "µM"}, {"measurement": "MIC", "setting": "Streptococcus agalactiae", "value": 3.9, "unit": "µM"}, {"measurement": "MIC", "setting": "[4]", "value": 7.9, "unit": "µM"}, {"measurement": "MIC", "setting": "[5]", "value": 4, "unit": "µM"}, {"measurement": "MIC", "setting": "Staphylococcus aureus", "value": 15.8, "unit": "µM"}, {"measurement": "MIC", "setting": "[6]", "value": 7.9, "unit": "µM"}, {"measurement": "MIC", "setting": "Pseudomonas aeruginosa", "value": 31.7, "unit": "µM"}]}
{"smiles": "CC[C@H](C)[C@H](NC(=O)[C@H](CC(C)C)NC(=O)[C@H](C)NC(=O)[C@@H]1CCCN1C(=O)[C@H](CC(C)C)NC(=O)CNC(=O)[C@@H](NC(=O)[C@@H](NC(=O)[C@H](CC(C)C)NC(=O)[C@@H](NC(=O)[C@H](CCCCN)NC(=O)[C@H](CO)NC(=O)CNC(=O)CNC(=O)[C@H](CCCCN)NC(=O)[C@@H](NC(=O)[C@H](CC(C)C)NC(=O)[C@H](CC(N)=O)NC(=O)[C@H](CCCCN)NC(=O)[C@@H](NC(=O)[C@H](Cc1ccccc1)NC(=O)[C@H](CCCCN)NC(=O)[C@H](CCCCN)NC(=O)[C@H](Cc1c[nH]c2ccccc12)NC(=O)[C@@H](N)CCCCN)[C@@H](C)CC)[C@@H](C)O)[C@@H](C)CC)[C@@H](C)O)[C@@H](C)O)C(=O)N[C@@H](CO)C(=O)O", "note": "[KWKKFIKNLTKGGSKILTTGLPALIS]", "values": [{"measurement": "MIC", "setting": "[7]", "value": 11.3, "unit": "µM"}, {"measurement": "MIC", "setting": "[8]", "value": 5.63, "unit": "µM"}, {"measurement": "MIC", "setting": "[9]", "value": 1.41, "unit": "µM"}, {"measurement": "MIC", "setting": "Escherichia coli UB1005", "value": 0.703, "unit": "µM"}, {"measurement": "MIC", "setting": "[10]", "value": 5.63, "unit": "µM"}, {"measurement": "MIC", "setting": "[11]", "value": 6.68, "unit": "µM"}, {"measurement": "MIC", "setting": "[12]", "value": 1.41, "unit": "µM"}]}
{"smiles": "CC(C)C[C@H](NC(=O)[C@H](CC(C)C)NC(=O)[C@H](CCCCN)NC(=O)[C@H](CC(C)C)NC(=O)[C@H](CC(C)C)NC(=O)[C@H](CC(C)C)NC(=O)[C@H](CCCCN)NC(=O)[C@@H](N)CC(C)C)C(N)=O", "note": "[LKLLLKLL]", "values": [{"measurement": "MIC", "setting": "[13]", "value": "≥ 100", "unit": "µM"}]}
{"smiles": "CC[C@H](C)[C@H](NC(=O)[C@@H](NC(=O)[C@H](Cc1cnc[nH]1)NC(=O)[C@@H](NC(=O)[C@@H](NC(=O)[C@H](CCCCN)NC(=O)[C@H](CCCN=C(N)N)NC(=O)[C@@H](NC(=O)[C@@H](NC(=O)[C@H](CCCN=C(N)N)NC(=O)[C@@H](N)CCCN=C(N)N)[C@@H](C)CC)[C@@H](C)CC)[C@@H](C)CC)[C@@H](C)CC)[C@@H](C)CC)C(N)=O", "note": "[RRIIRKIIHII]", "values": [{"measurement": "MIC", "setting": "[14]", "value": 14, "unit": "µM"}, {"measurement": "MIC", "setting": "[15]", "value": 14, "unit": "µM"}, {"measurement": "MIC", "setting": "Bibersteinia trehalosi", "value": 14, "unit": "µM"}, {"measurement": "MIC", "setting": "Aspergillus fumigatus", "value": 14, "unit": "µM"}, {"measurement": "MIC", "setting": "[16]", "value": 11.7, "unit": "µM"}, {"measurement": "MIC", "setting": "Pasteurella multocida", "value": 14, "unit": "µM"}, {"measurement": "MIC", "setting": "Staphylococcus aureus", "value": "> 14", "unit": "µM"}, {"measurement": "MIC", "setting": "[17]", "value": 5.8, "unit": "µM"}, {"measurement": "MIC", "setting": "Klebsiella pneumoniae", "value": 10.5, "unit": "µM"}, {"measurement": "MIC", "setting": "[18]", "value": 14, "unit": "µM"}, {"measurement": "MIC", "setting": "[19]", "value": 5.8, "unit": "µM"}]}
{"smiles": "CC(C)C[C@H](NC(=O)[C@H](C)NC(=O)[C@H](CC(C)C)NC(=O)[C@H](C)NC(=O)[C@H](CC(C)C)NC(=O)[C@H](CCCCN)NC(=O)[C@H](C)NC(=O)[C@H](CC(C)C)NC(=O)[C@H](CCCCN)NC(=O)[C@H](CCCCN)NC(=O)[C@H](C)NC(=O)[C@H](CC(C)C)NC(=O)[C@H](CCCCN)NC(=O)[C@H](C)NC(=O)[C@H](CC(C)C)NC(=O)[C@H](CCCCN)NC(=O)[C@H](CCCCN)NC(=O)[C@H](C)NC(=O)[C@@H](N)C(C)C)C(N)=O", "note": "[VAKKLAKLAKKLAKLALAL]", "values": [{"measurement": "MIC", "setting": "Candida albicans", "value": 8.03, "unit": "µM"}, {"measurement": "MIC", "setting": "[20]", "value": 4.02, "unit": "µM"}, {"measurement": "MIC", "setting": "[21]", "value": 4.02, "unit": "µM"}, {"measurement": "MIC", "setting": "[14]", "value": 16.1, "unit": "µM"}, {"measurement": "MIC", "setting": "[22]", "value": "≥ 32.1", "unit": "µM"}, {"measurement": "MIC", "setting": "[23]", "value": "≥ 32.1", "unit": "µM"}, {"measurement": "MIC", "setting": "[24]", "value": 8.03, "unit": "µM"}, {"measurement": "MIC", "setting": "Escherichia coli UB1005", "value": "≥ 32.1", "unit": "µM"}, {"measurement": "MIC", "setting": "Pseudomonas fluorescens", "value": 4.02, "unit": "µM"}, {"measurement": "MIC", "setting": "Staphylococcus aureus", "value": 16.1, "unit": "µM"}, {"measurement": "MIC", "setting": "[25]", "value": 4.02, "unit": "µM"}, {"measurement": "MIC", "setting": "Ralstonia pickettii", "value": 4.02, "unit": "µM"}, {"measurement": "MIC", "setting": "Pseudomonas aeruginosa", "value": "4.02 µM and 5.68 µM"}, {"measurement": "MIC", "setting": "[26]", "value": 4.02, "unit": "µM"}, {"measurement": "MIC", "setting": "[27]", "value": 2.01, "unit": "µM"}]}
{"smiles": "CC[C@H](C)[C@H](NC(=O)[C@@H](N)C(C)C)C(=O)N[C@@H](CC(=O)O)C(=O)N[C@@H](CC(=O)O)C(=O)N[C@@H](CC(C)C)C(=O)N[C@@H](CCCCN)C(=O)N[C@@H](CCCCN)C(=O)N[C@H](C(=O)N[C@@H](C)C(=O)N[C@@H](CCCCN)C(=O)N[C@@H](CCCCN)C(=O)N[C@H](C(=O)N[C@@H](CCCN=C(N)N)C(=O)N[C@@H](CCCN=C(N)N)C(=O)N[C@@H](CCC(=O)O)C(=O)N[C@@H](CC(C)C)C(=O)N[C@@H](CC(C)C)C(=O)N[C@@H](CS)C(=O)N[C@@H](CCCCN)C(=O)N[C@@H](CCCCN)C(=O)N[C@@H](Cc1cnc[nH]1)C(=O)N[C@@H](Cc1cnc[nH]1)C(=O)N[C@@H](CCCCN)C(=O)N[C@@H](CCCCN)C(=O)N[C@@H](CC(C)C)C(=O)N[C@@H](CC(N)=O)C(=O)O)C(C)C)C(C)C", "note": "[VIDDLKKVAKKVRRELLCKKHHKKLN]", "values": [{"measurement": "MIC", "setting": "[28]", "value": 11.3, "unit": "µM"}, {"measurement": "MIC", "setting": "[29]", "value": 20.4, "unit": "µM"}]}
